Assay results published in patent US20260092054A1, “FUSED RING COMPOUND AND PHARMACEUTICAL CONTAINING SAME” (KAKEN PHARMACEUTICAL CO., LTD., priority 2022, published 2026).

Key:
human STAT6 = test: Human STAT6 dependent reporter activity (IL-4 stimulated STAT6 reporter assay using STAT6-HEK293 cells); assay type: cell-based; conditions: Homo sapiens, IL-4 stimulation, luciferase activity, read-out: Inhibition rate (%); for inhibition at 0.1 µM: compound 0.1 μmol/L; for inhibition at 1 µM: compound 1 μmol/L
human STAT6/pIL-4Rα = molecular target: T1, human STAT6/pIL-4Rα (Homo sapiens, UniProt P42226); test: Binding inhibitory activity between human STAT6/pIL-4Rα by fluorescence polarization method; conditions: rhSTAT6 (123-658) / FAM-pIL-4Rα peptide
T1 construct: histidine tag
T1 sequence (P42226 123-658): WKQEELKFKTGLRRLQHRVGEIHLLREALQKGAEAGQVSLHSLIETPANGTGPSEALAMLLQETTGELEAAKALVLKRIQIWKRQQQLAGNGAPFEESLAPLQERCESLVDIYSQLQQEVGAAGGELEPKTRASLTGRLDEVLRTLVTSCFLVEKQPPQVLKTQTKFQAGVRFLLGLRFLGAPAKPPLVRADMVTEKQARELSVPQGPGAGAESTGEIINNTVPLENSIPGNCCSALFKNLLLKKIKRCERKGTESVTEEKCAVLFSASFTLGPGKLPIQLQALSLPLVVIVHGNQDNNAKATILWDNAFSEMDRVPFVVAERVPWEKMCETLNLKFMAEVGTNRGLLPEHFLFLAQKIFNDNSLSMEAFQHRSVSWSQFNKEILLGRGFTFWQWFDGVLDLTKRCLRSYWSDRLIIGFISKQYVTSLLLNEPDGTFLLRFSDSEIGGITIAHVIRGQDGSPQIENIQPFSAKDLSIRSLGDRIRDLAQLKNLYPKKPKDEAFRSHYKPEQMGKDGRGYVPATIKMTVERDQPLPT
How it was run: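 His-tagged human STAT6 (residues 123–658, E. coli-expressed) was preincubated with compound for 30 min at RT in the dark, in buffer e.g. 50 mM NaCl, 10 mM HEPES pH 7.0, 1 mM DTT, 1 mM EDTA, 0.01% NP-40. FAM-pIL-4Rα peptide was then added for 30 min. Fluorescence polarisation was read at 485/535 nm, with IC50 interpolated linearly between two points flanking 50%.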

SMILES | IC50 (human STAT6/pIL-4Rα) | inhibition at 0.1 µM (human STAT6) | inhibition at 1 µM (human STAT6)
CCn1c(-c2ccc(-n3c(C)nn(C)c3=O)cc2)cc2ccnc(C(=O)Nc3cccc(C(=O)NCC#N)c3)c21 [Ex. 189] | 380 nM | 72% | 97%
COCCn1c(-c2ccc(-n3c(C)nn(C)c3=O)cc2)cc2ccnc(C(=O)Nc3cccc(C(=O)Nc4cccn(C)c4=O)c3)c21 [Ex. 196] | 270 nM | 81% | –
COCCn1c(-c2ccc(-n3c(C)nn(C)c3=O)cc2)cc2ccnc(C(=O)Nc3cccc(C(=O)Nc4cccc(OC)n4)c3)c21 [Ex. 197] | 250 nM | 73% | –
CCn1c(-c2ccc(-n3c(C)nn(C)c3=O)cc2)cc2ccnc(C(=O)Nc3cccc(C(=O)Nc4cc(Cl)n(C)n4)c3)c21 [Ex. 198] | 410 nM | 96% | –
Cc1nn(C)c(=O)n1-c1ccc(-c2cc3ccnc(C(=O)Nc4cccc(C(=O)Nc5cccn(C)c5=O)c4)c3n2CC2CC2)cc1 [Ex. 199] | 270 nM | 67% | –
Cc1nn(C)c(=O)n1-c1ccc(-c2cc3ccnc(C(=O)Nc4cccc(C(=O)Nc5cccn(C)c5=O)c4)c3n2CC2(C#N)CC2)cc1 [Ex. 200] | 230 nM | 53% | 99%
CCn1c(-c2ccc(-n3c(C)nn(C)c3=O)cc2)cc2ccnc(C(=O)Nc3cccc(C(=O)Nc4ccn(C)n4)c3)c21 [Ex. 201] | 310 nM | 99% | –
COCCn1c(-c2ccc(-n3c(C)nn(C)c3=O)cc2)cc2ccnc(C(=O)Nc3cccc(C(=O)Nc4cc(Cl)n(C)n4)c3)c21 [Ex. 202] | 340 nM | 95% | –
CCn1c(-c2ccc(-n3c(C)nn(C)c3=O)cc2)cc2cncc(C(=O)Nc3ccc(F)c(C(N)=O)c3)c21 [Ex. 216] | 430 nM | 7% | 42%
CCn1c(-c2ccc(N3C(=O)C(C)CC3C)cc2)nc2cc(C(F)(F)F)cc(C(=O)Nc3cccc(C(N)=O)c3F)c21 (stereo not drawn) [Ex. 218] | 680 nM | 38% | 89%

Further lines, with some results ahead:

IC50 (human STAT6/pIL-4Rα) | SMILES | inhibition at 0.1 µM (human STAT6) | inhibition at 1 µM (human STAT6)
320 nM | CCn1c(-c2ccc(-n3c(C)nn(C)c3=O)cc2)cc2ccnc(C(=O)Nc3cccc(C(=O)Nc4c(C)ccn(C)c4=O)c3)c21 [Ex. 188] | 44% | 97%
410 nM | CCn1c(-c2ccc(-n3c(C)nn(C)c3=O)cc2)cc2ccnc(C(=O)Nc3cccc(C(=O)NCC#N)c3F)c21 [Ex. 190] | 66% | 97%
290 nM | CCn1c(-c2ccc(-n3c(C)nn(C)c3=O)cc2)cc2ccnc(C(=O)Nc3ccc(F)c(C(=O)Nc4cn(C)c(=O)n(C)c4=O)c3)c21 [Ex. 191] | 63% | –
340 nM | CCn1c(-c2ccc(-n3c(C)nn(C)c3=O)cc2)cc2ccnc(C(=O)Nc3ccc(F)c(C(=O)Nc4cncn(C)c4=O)c3)c21 [Ex. 192] | 71% | –
420 nM | CCn1c(-c2ccc(-n3c(C)nn(C)c3=O)cc2)cc2ccnc(C(=O)Nc3cccc(C(=O)Nc4cncn(C)c4=O)c3F)c21 [Ex. 193] | 67% | 98%
420 nM | CCn1c(-c2ccc(-n3c(C)nn(C)c3=O)cc2)cc2ccnc(C(=O)Nc3ccc(F)c(C(=O)Nc4cc(C)cn(C)c4=O)c3)c21 [Ex. 194] | 68% | 98%
290 nM | CCn1c(-c2ccc(-n3c(C)nn(C)c3=O)cc2)cc2ccnc(C(=O)Nc3ccc(F)c(C(=O)Nc4ccc(C)n(C)c4=O)c3)c21 [Ex. 195] | 56% | –
